Article doi:10.1101/2025.08.13.670122v1 (bioRxiv, 2025)
Peptide text beside a SMILES is read from it.

Experiments:
Plasma stability = format: in vitro ADME; settings: male Sprague-Dawley rat plasma, 6 μL of 1 mM compound (10% DMSO) in 27 μL plasma, 37°C, 0-24 h, UPLC-MS, one-phase decay, mean ± SEM of at least three experiments, read-out: Plasmatic half-life t1/2 (±SEM)
Description: The degradation was quenched by adding 140 μL of 1% formic acid in an acetonitrile-ethanol (1:1) solution containing 0.25 mM of N,N-dimethylbenzamide (used as an internal standard). This mixture was initially transferred to an Impact Protein Precipitation filter plate (Phenomenex, California), the filtrates from which were subsequently collected in a second 96-well UPLC plate. Both plates were centrifuged at 500 g for 10 min while maintaining a temperature of 4°C. The filtrates were then diluted with 30 μL of distilled water and processed for analysis using an Acquity UPLC-MS system class H (using an Acquity UPLC protein BEH C18 column that measured 2.1 mm × 50 mm and had 1.7 μm particles with pores 130 Å in width). The peptide half-life, derived from the degradation curve, was calculated using the exponential one-phase decay function in GraphPad Prism 9. Degradation was estimated by comparing the mass spectrum at each point with those at the zero-minute mark. The data were presented as a mean ± SEM of at least three unique experiments, each performed in singlicate.

AT1R [1] = molecular target: T1, AT1R (Homo sapiens, UniProt P30556); test: β-arrestin2 recruitment BRET (β-arrestin2-RLucII/rGFP-CAAX) in HEK293 cells expressing AT1R; format: cell-based; set-up: expressed in transfected cells; host or cells: HEK293 cells, transient PEI transfection; settings: for Emax βarr2 (% AngII): HEK293/AT1R, β-arrestin2 BRET, response of the ligand at 10 μM, normalised to AngII; for EC50: HEK293 cells transiently expressing AT1R, β-arrestin2-RLucII/rGFP-CAAX BRET, read 10 min after ligand, mean ± SEM of at least three to five independent experiments, SEM, read-out: EC50 βarr2
T1 sequence (P30556 1-359): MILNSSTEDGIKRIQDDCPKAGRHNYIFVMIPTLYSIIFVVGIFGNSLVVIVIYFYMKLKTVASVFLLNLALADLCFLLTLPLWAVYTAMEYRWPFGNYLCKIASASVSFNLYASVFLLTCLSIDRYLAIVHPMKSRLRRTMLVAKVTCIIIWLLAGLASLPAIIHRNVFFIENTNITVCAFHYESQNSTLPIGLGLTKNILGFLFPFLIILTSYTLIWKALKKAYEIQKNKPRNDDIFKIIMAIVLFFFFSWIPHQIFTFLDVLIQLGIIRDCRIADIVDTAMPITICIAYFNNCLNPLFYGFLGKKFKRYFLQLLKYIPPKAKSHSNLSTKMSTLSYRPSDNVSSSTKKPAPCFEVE
From the text: (§1) We utilized a clonal cell line HEK293, referred to hereafter as HEK293 cells, which has been previously described.[7],[8] As a gracious gift from A. Inoue (Tohoku University, Sendai, Miyagi, Japan), CRISPR Gαq/11 and Gα12/13 knockout cell lines (ΔGq/11 and ΔG12/13, respectively), were derived as previously explained.[48] In brief, a CRISPR-Cas9 system was used to target either GNAQ and GNA11 or GNA12 and GNA13 genes in HEK293T cells simultaneously to generate the Gαq/11 and Gα12/13 knockout cell lines. For the production of adenovirus, we utilized HEK293A cells. All cells were grown in DMEM supplemented with 10% FBS and Penicillin-Streptomycin-L-Glutamine (10000 IU penicillin, 10000 µg/mL Streptomycin, 200 mM L-Glutamine) at 37°C in T175 flasks under a 5% CO2 humidified chamber. Periodic testing was carried out for mycoplasma contamination (ABM™, Mycoplasma PCR Detection kit). For all biosensors used, cells underwent transfection with the PEI reagent, employing a PEI:DNA ratio of 3:1. For the Gαq biosensor, HEK293 cells were transfected with the plasmids coding for Gαq-RLucII (120 ng), Gβ1 (3000 ng), Gγ1-GFP10 (3000 ng), human AT1 (3000 ng) and Salmon sperm DNA (SSD) (880 ng). For the β-arrestin2 recruitment assay, HEK293 cells were transfected with the plasmids coding for 120 ng β-arrestin-2-RLucII, 3000 ng AT1, 3000 ng rGFP-CAAX, and 3880 ng SSD. For the measurement of PKC, HEK293 cells were transfected with 3000 ng AT1, 600 ng PKC-c1b, and 6400 ng SSD. […] 100 µL of the cell/DNA mixture was added to white 96-well plates and incubated at 37°C at 5% CO2 for 48 h. For the Rho assay, ΔG12/13 cells were seeded at a density of 9,000 cells per well in poly-ornithine-coated white 96-well plates and transfected the following day. In brief, 1 μg of total DNA in 100 μL of PBS was mixed with 100 μL of PBS containing 3 μL of 1 mg/mL PEI. For Rho signaling, 150 ng of AT1R DNA with 25 ng of PKN-RBD-RlucII [8], and 100 ng of rGFP-CAAX were used. Empty pcDNA was used to reach 1 µg of the total DNA amount in 100 μL of PBS. The DNA was then mixed with 100 μL of PBS containing 3 μL of 1 mg/mL PEI. After a 20-min incubation, the DNA/PEI complexes were dispensed into cells in 96-well plates (15 µL/well), and the experiment was carried out 48 h post-transfection.
(§2) On the day of the experiment, each well was washed with 80 µL of Tyrode’s buffer (140 mM NaCl, 2.7 mM KCl, 1 mM CaCl2, 12 mM NaHCO3, 5.6 mM D-glucose, 0.5 mM MgCl2, 0.37 mM NaH2PO4, 25 mM Hepes (pH 7.4)). This was followed by incubation for 1 h in Tyrode’s buffer at room temperature. For the Gαq, β-arrestin-2, and PKC biosensors used in HEK293 cells, coelenterazine 400A (at a final concentration of 5 μM) was added 10 min before stimulation. Cells were then stimulated with increasing doses of the indicated ligand, and BRET signals were measured using a Tristar2 (Berthold) microplate reader 10 min later. For the PKC and Rho biosensors in VSMCs, and the Rho biosensor in ΔG12/13 cells, cells were similarly stimulated with ligands for 1 min, 1 min 30 s, and 3 min, respectively, before BRET measurement. […] BRET signals were then measured using a Synergy2 (BioTek) microplate reader. The applied filter set was 410/80 nm and 515/30 nm, designed to detect the light emissions of RlucII (Renilla luciferase) (donor) and rGFP (acceptor), respectively.

AT1R [2] = molecular target: T1, AT1R; test: Gαq activation BRET (GABY sensor) in HEK293 cells expressing AT1R; format: cell-based; set-up: expressed in transfected cells; host or cells: HEK293 cells, transient PEI transfection; settings: for Emax Gαq (% AngII): HEK293/AT1R, GABY BRET sensor, response of the ligand at 10 μM, normalised to AngII; for EC50: HEK293 cells transiently expressing human AT1R, Gαq-RlucII/Gβ1/Gγ1-GFP10 (GABY) BRET sensor, BRET read 10 min after ligand, mean ± SEM of at least three to five independent experiments
From the text: as §1, §2

SMILES | half-life at 182 µM (Plasma stability) [min] | Emax βarr2 (% AngII) (AT1R [1]) | Emax Gαq (% AngII) (AT1R [2]) | EC50 (AT1R [1]) [nM] | EC50 (AT1R [2]; SEM) [nM] | EC50 (AT1R [2]) [nM]
CC[C@H](C)[C@H](NC(=O)[C@H](Cc1ccc(O)cc1)NC(=O)[C@@H](NC(=O)[C@H](CCCNC(=N)N)NC(=O)[C@@H](N)CC(=O)O)C(C)C)C(=O)N[C@@H](Cc1c[nH]cn1)C(=O)N1CCC[C@H]1C(=O)N[C@@H](Cc1ccccc1Cl)C(=O)O [29a] | 32 ± 3 |  |  |  |  | 
CC[C@H](C)[C@H](NC(=O)[C@H](Cc1ccc(O)cc1)NC(=O)[C@@H](NC(=O)[C@H](CCCNC(=N)N)NC(=O)[C@@H](N)CC(=O)O)C(C)C)C(=O)N[C@@H](Cc1c[nH]cn1)C(=O)N1CCC[C@H]1C(=O)N[C@@H](Cc1ccc(O)cc1)C(=O)O [24c] (H-DRVYIHPY-OH) |  | 105 | 89 |  |  | 
CC[C@H](C)[C@H](NC(=O)[C@H](Cc1ccc(O)cc1)NC(=O)[C@@H](NC(=O)[C@H](CCCNC(=N)N)NC(=O)[C@@H](N)CC(=O)O)C(C)C)C(=O)N[C@@H](Cc1c[nH]cn1)C(=O)N1CCC[C@H]1C(=O)N[C@@H](Cc1ccc(-c2ccccc2)cc1)C(=O)O [compound 13] |  | 98 | 45 | 15 ± 4 | 16 ± 12 | 
CC[C@H](C)[C@H](NC(=O)[C@H](Cc1ccc(O)cc1)NC(=O)[C@@H](NC(=O)[C@H](CCCN=C(N)N)NC(=O)[C@@H](N)CC(=O)O)C(C)C)C(=O)N[C@@H](Cc1c[nH]cn1)C(=O)N1CCC[C@H]1C(=O)N[C@@H](Cc1ccc(O)cc1)C(=O)O [24c] (H-DRVYIHPY-OH) |  |  |  | 2.6 ± 0.8 | 4.2 ± 1.3 | 
CC[C@H](C)[C@H](NC(=O)[C@H](Cc1ccc(O)cc1)NC(=O)[C@@H](NC(=O)[C@H](CCCNC(=N)N)NC(=O)[C@@H](N)CC(=O)O)C(C)C)C(=O)N[C@@H](Cc1c[nH]cn1)C(=O)N1CCC[C@H]1C(=O)N[C@H](C(=O)O)C(c1ccccc1)c1ccccc1 [compound 15] |  | 109 | 99 | 6.7 ± 0.8 | 7.9 ± 1.7 | 

Results, then the molecule that gave them:

half-life at 182 µM (Plasma stability) [min] | Emax βarr2 (% AngII) (AT1R [1]) | Emax Gαq (% AngII) (AT1R [2]) | EC50 (AT1R [1]) [nM] | EC50 (AT1R [2]; SEM) [nM] | EC50 (AT1R [2]) [nM] | SMILES
 | 97 | 29 | 1.9 ± 0.3 | 14 ± 13 |  | CC[C@H](C)[C@H](NC(=O)[C@H](Cc1ccc(O)cc1)NC(=O)[C@@H](NC(=O)[C@H](CCCNC(=N)N)NC(=O)[C@@H](N)CC(=O)O)C(C)C)C(=O)N[C@@H](Cc1c[nH]cn1)C(=O)N1CCC[C@H]1C(=O)N[C@@H](Cc1cscn1)C(=O)O [compound 20]
 | 92 | 36 | 0.86 ± 0.16 | 3 ± 3.6 |  | CCCC[C@H](NC(=O)[C@@H]1CCCN1C(=O)[C@H](Cc1c[nH]cn1)NC(=O)[C@@H](NC(=O)[C@H](Cc1ccc(O)cc1)NC(=O)[C@@H](NC(=O)[C@H](CCCNC(=N)N)NC(=O)[C@@H](N)CC(=O)O)C(C)C)[C@@H](C)CC)C(=O)O [compound 2]
 | 45 |  | 4560 ± 3880 |  | > 10000 | CC[C@H](C)[C@H](NC(=O)[C@H](Cc1ccc(O)cc1)NC(=O)[C@@H](NC(=O)[C@H](CCCNC(=N)N)NC(=O)[C@@H](N)CC(=O)O)C(C)C)C(=O)N[C@@H](Cc1c[nH]cn1)C(=O)N1CCC[C@H]1C(=O)N[C@@H](CCCN)C(=O)O [compound 5]
